Experimental findings from patent publication US4873253A, “Phenylalanine derivative and proteinase inhibitor” (Okamoto; Shosuke, priority 1987, dated 1989) are described below.

Molecules are shown by their SMILES. Counter-ions that a name gives are not always drawn. Like-named read-outs stand apart in the source and are kept apart here.

Experiment [1] deals with T1, human plasmin (Homo sapiens, UniProt P00747). Nature of the experiment: Antiplasmin activity: inhibition of fibrin decomposition. In kind it is biochemical. To be noted: Table 2, pH 7.4, 37° C., read-out: Plasmin Fibrin I50 (concentration doubling fibrin dissolution time). The protocol:
(i) Determination of inhibition activity for fibrin decomposition
An inhibitor sample is dissolved in a 0.18 M borate-physiological salt buffer solution (pH=7.4) to make the total volume to 600 μl. To this buffer solution, 200 μl of a 0.2% bovine fibrinogen, 100 μl of a 0.3 casein unit/ml human plasmin solution, and 100 μl of a 50 unit/ml bovine thrombin solution, all dissolved in the above-mentioned buffer, are added at a temperature of 37° C. in a constant temperature bath. Then, the dissolution time of the fibrin mass formed above is determined.

Another experiment deals with human plasma kallikrein (Homo sapiens, UniProt P03952). The experiment can be described thus: Anti-plasma kallikrein activity: inhibition of S-2302 decomposition. It is filed as biochemical. The following applies: Table 2; substrate S-2302, pH 7.8, 37° C.; read-out: Plasma Kallikrein S-2302 I50. The protocol: Determination of inhibition activity for S-2302 decomposition
Chain of human plasma kallikrein (P03952 391-638 limits assumed): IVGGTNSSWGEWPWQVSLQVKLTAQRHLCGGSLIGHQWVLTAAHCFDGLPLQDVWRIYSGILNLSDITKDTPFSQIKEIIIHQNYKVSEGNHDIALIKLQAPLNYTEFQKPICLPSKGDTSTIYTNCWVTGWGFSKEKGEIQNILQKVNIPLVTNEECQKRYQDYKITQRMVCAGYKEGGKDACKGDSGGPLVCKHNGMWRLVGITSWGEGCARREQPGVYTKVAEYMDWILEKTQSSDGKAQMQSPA
Chain of human plasma kallikrein (P03952 20-390 limits assumed): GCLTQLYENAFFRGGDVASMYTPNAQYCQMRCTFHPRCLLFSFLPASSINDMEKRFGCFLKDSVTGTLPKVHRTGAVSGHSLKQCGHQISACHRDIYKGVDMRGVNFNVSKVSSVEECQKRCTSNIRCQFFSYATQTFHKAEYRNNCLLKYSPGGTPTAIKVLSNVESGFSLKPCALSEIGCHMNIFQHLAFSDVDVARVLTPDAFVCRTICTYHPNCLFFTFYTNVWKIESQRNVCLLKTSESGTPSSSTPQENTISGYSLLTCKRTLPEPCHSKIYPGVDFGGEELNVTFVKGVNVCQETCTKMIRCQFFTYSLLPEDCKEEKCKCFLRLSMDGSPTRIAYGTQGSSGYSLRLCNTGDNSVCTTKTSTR
(§1) An inhibitor sample is dissolved in a 0.05 M Tris-hydrochloric acid buffer solution (pH=7.8) to make the total volume to 400 μl. To this solution, 50 μl of a 2 mM S-2302 solution is added and the mixture is incubated at a temperature of 37° C. for 5 minutes in a constant temperature bath. Then, 50 μl of a 0.12 unit/ml human plasma kallikrein is added and the mixture is incubated at a temperature of 37° C. for 5 minutes. Thereafter, 50 μl of 50% acetic acid is added to terminate the reaction. The absorbance of the p-nitroaniline formed in the reaction mixture is measured at 405 nm. Thus, the concentration I50 (μmol) of the inhibitor sample, at which the absorbance is one half (i.e., 1/2) of that obtained in the absence of the inhibitor sample, is determined.

A further experiment deals with T2, bovine thrombin (Bos taurus, UniProt P00735).
T2 construct: a 0.2 unit/ml bovine thrombin solution
Nature of the experiment: Antithrombin activity: inhibition of fibrin formation (fibrinogen). In kind it is biochemical. How it is done: (i) Determination of inhibition activity against fibrin formation
An inhibitor sample is dissolved in a 0.18 M borate-physiological salt buffer solution (pH= 7.4) to make the total volume to 500 μl. […] Thus, a coagulation time is determined. The inhibitor concentration I50 (μmol), at which the coagulation time obtained in the absence of the inhibitor is extended twice, is determined.

Experiment [2] concerns the target T1, human plasmin. Nature of the experiment: Antiplasmin activity: inhibition of S-2251 decomposition. In kind it is biochemical. To be noted: Table 2; substrate S-2251, pH 7.4, 37° C. How it is done: An inhibitor sample is dissolved in a 0.05 M Tris-hydrochloric acid buffer solution (pH=7.4) to make the total volume to 400 μl. […] Then, 50 μl of a 0.2 casein unit/ml human plasmin is added and the mixture is incubated at a temperature of 37° C. for 4 minutes. Thereafter, the reaction is stopped by adding 50 μl of 50% acetic acid.
Thus, the concentration I50 (μmol) of the inhibitor sample, at which the absorbance is one half (i.e., 1/2) of that obtained in the absence of the inhibitor, is determined.

A further experiment addresses T3, bovine trypsin (Bos taurus, UniProt P00760).
T3 sequence (P00760 24-246): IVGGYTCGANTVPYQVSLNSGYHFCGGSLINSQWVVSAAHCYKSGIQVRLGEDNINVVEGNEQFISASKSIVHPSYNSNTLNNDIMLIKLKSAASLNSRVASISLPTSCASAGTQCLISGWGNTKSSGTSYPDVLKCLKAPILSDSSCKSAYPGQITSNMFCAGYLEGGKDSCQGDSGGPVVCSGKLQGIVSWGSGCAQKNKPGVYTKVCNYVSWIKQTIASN
Nature of the experiment: Antitrypsin activity: inhibition of S-2238 decomposition. To be noted: Table 2; substrate S-2238, pH 8.1, 37° C.; read-out: Trypsin S-2238 I50. In kind it is biochemical. How it is done:
Determination of inhibition activity against S-2238 decomposition
An inhibitor sample is dissolved in a 0.05 M Tris-imidazole buffer solution (pH=8.1) and 125 μl of a 1 mM S-2238 solution is added to make the total volume to 1.20 ml. The mixture is incubated at a temperature of 37° C. for 5 minutes in a constant temperature bath. To this mixture, 0.05 ml of bovine trypsin is added and the absorbance, at 405 nm, of the p-nitroaniline formed per minute is determined at a temperature of 37° C. by using the so-called initial velocity method. Thus, the concentration I50 (μmol) of a inhibitor sample, at which the absorbance is one half (i.e., 1/2) of that obtained in the absence of the inhibitor sample, is determined.

The next experiment concerns the target human urokinase (Homo sapiens, UniProt P00749). Nature of the experiment: biochemical. The following applies: read-out: Urokinase S-2444 I50. The protocol:
Determination of inhibition activity for S-2444 decomposition
as §1, with “solution (pH=8.8)” for “solution (pH=7.8)”, “a 1” for “a 2”, “mM S-2444” for “mM S-2302”, “a 500” for “a 0.12”, “human urokinase” for “human plasma kallikrein”

[3] abbreviates: Table 2, bovine fibrinogen, pH 7.4, 37° C., read-out: Thrombin Fibrinogen I50 (concentration doubling coagulation time).
[4] abbreviates: Table 2, substrate S-2444, pH 8.8, 37° C.

T1 sequence (P00747 581-810 limits assumed): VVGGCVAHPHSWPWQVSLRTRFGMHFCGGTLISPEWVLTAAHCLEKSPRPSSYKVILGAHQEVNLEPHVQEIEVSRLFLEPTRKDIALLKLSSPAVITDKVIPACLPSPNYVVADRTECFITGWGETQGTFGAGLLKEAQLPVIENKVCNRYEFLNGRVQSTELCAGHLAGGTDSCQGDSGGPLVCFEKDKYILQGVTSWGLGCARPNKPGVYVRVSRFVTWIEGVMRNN
T1 sequence (P00747 97-580 limits assumed): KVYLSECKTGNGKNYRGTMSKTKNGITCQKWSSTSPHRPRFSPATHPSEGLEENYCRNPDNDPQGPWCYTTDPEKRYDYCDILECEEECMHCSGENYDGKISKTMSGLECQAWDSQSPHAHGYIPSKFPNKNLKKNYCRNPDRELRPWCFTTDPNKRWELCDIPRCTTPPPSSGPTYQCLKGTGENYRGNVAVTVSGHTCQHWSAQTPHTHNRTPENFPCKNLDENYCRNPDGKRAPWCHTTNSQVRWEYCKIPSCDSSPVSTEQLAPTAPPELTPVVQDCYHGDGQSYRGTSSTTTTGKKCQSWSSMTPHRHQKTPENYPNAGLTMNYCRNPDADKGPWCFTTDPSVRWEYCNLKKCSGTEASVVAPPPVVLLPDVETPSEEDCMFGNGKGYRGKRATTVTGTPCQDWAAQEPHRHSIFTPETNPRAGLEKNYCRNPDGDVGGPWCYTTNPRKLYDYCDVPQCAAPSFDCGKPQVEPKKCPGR

In the case of `NC[C@H]1CC[C@H](C(=O)NC(Cc2cccc(Oc3ccccc3)c2)C(=O)Nc2ccncn2)CC1` (mixture of isomers) [Compound 12, N-(trans-4-aminomethylcyclohexylcarbonyl)-3-phenoxy-DL-phenylalanine 4-pyrimidylamide dihydrochloride], the IC50 at human plasmin [1] is 130 µM; at human plasma kallikrein, 55 µM; on bovine thrombin (setting [3]), more than 1000 µM; at human plasmin [2], 1000 µM; at bovine trypsin, more than 150 µM; on human urokinase (setting [4]) it was more than 1000 µM.
Take `COCCCNC(=O)C(Cc1cccc(Oc2ccc(Br)cn2)c1)NC(=O)[C@H]1CC[C@H](CN)CC1` (mixture of isomers) [Compound 25, N-(trans-4-aminomethylcyclohexylcarbonyl)-3-(5-bromo-2-pyridyloxy)-DL-phenylalanine 3-methoxypropylamide hydrochloride]: the IC50 at human plasmin [1] was 450 µM; on human plasma kallikrein, 500 µM; at bovine thrombin (setting [3]) it was more than 1000 µM; against human plasmin [2] it was 490 µM; on bovine trypsin, more than 150 µM; at human urokinase (setting [4]) it was more than 1000 µM.
In the case of `CCOC(=O)C(Cc1cccc(Oc2ccccc2)c1)NC(=O)[C@H]1CC[C@H](CN)CC1` (mixture of isomers) [Compound 57, N-(trans-4-aminomethylcyclohexylcarbonyl)-3-phenoxy-DL-phenylalanine ethyl ester hydrochloride], the IC50 on human plasmin [1] is 110 µM; on human plasma kallikrein it was 5.7 µM; at bovine thrombin (setting [3]), more than 1000 µM; against human plasmin [2], 260 µM; on bovine trypsin it was 25 µM; at human urokinase (setting [4]), 350 µM.
Turning to `Cc1ccc(NC(=O)C(Cc2cccc(Oc3ccccc3)c2)NC(=O)[C@H]2CC[C@H](CN)CC2)cc1` (stereo partly drawn) [Compound 1], the IC50 on human plasmin [1] is 15 µM; at human plasma kallikrein, 1.3 µM; on bovine thrombin it was more than 100 µM; on human plasmin [2], 46 µM; at bovine trypsin, 15 µM; on human urokinase, more than 100 µM.
For `CCOC(=O)c1cccc(NC(=O)C(Cc2cccc(Oc3ccccc3)c2)NC(=O)[C@H]2CC[C@H](CN)CC2)c1` (stereo partly drawn) [Compound 3], the IC50 was 11 µM on human plasmin [1]; 1.2 µM on human plasma kallikrein; more than 100 µM at bovine thrombin (setting [3]); 31 µM against human plasmin [2]; 2.3 µM on bovine trypsin; more than 100 µM on human urokinase (setting [4]).
Take `NC[C@H]1CC[C@H](C(=O)NC(Cc2cccc(Oc3ccccc3)c2)C(=O)Nc2ccccn2)CC1` (stereo partly drawn) [Compound 6]: the IC50 was 190 µM at human plasmin [1]; 11 µM on human plasma kallikrein; more than 500 µM on bovine thrombin; 360 µM against human plasmin [2]; more than 15 µM on bovine trypsin; more than 500 µM at human urokinase (setting [4]).
With `NC[C@H]1CC[C@H](C(=O)NC(Cc2cccc(Oc3ccccc3)c2)C(=O)NCC(=O)c2ccccc2)CC1` (stereo partly drawn) [Compound 15], the IC50 on human plasmin [1] is more than 100 µM; at human plasma kallikrein, more than 200 µM; at bovine thrombin (setting [3]), more than 100 µM; against human plasmin [2] it was more than 100 µM; at bovine trypsin, more than 150 µM; at human urokinase (setting [4]), more than 100 µM.
As for `COC(=O)[C@@H](C)NC(=O)C(Cc1cccc(Oc2ccccc2)c1)NC(=O)[C@H]1CC[C@H](CN)CC1` (stereo partly drawn) [Compound 16], the IC50 at human plasmin [1] is more than 1000 µM; on human plasma kallikrein, more than 1000 µM; at bovine thrombin (setting [3]) it was more than 1000 µM; against human plasmin [2], more than 1000 µM; on bovine trypsin, more than 150 µM; at human urokinase (setting [4]) it was more than 500 µM.
For the compound `NC[C@H]1CC[C@H](C(=O)NC(Cc2cccc(Oc3ccccc3)c2)C(=O)N2CCC(C(=O)O)CC2)CC1` (stereo partly drawn) [Compound 17], the IC50 is 570 µM at human plasmin [1]; more than 1000 µM at human plasma kallikrein; more than 1000 µM on bovine thrombin (setting [3]); 1000 µM against human plasmin [2]; more than 150 µM at bovine trypsin; more than 500 µM at human urokinase (setting [4]).
As to `CCOC(=O)C1CCN(C(=O)C(Cc2cccc(Oc3ccccc3)c2)NC(=O)[C@H]2CC[C@H](CN)CC2)CC1` (stereo partly drawn) [Compound 18], the IC50 was more than 100 µM at human plasmin [1]; more than 500 µM on human plasma kallikrein; more than 100 µM on bovine thrombin (setting [3]); 430 µM against human plasmin [2]; more than 150 µM at bovine trypsin; more than 1000 µM at human urokinase (setting [4]).
For the compound `NC[C@H]1CC[C@H](C(=O)NC(Cc2cccc(Oc3ccccc3)c2)C(=O)N2CCOCC2)CC1` (stereo partly drawn) [Compound 19], the IC50 was more than 1000 µM on human plasmin [1]; more than 1000 µM at human plasma kallikrein; more than 1000 µM at bovine thrombin (setting [3]); more than 1000 µM against human plasmin [2]; more than 150 µM at bovine trypsin; more than 1000 µM at human urokinase (setting [4]).
Take `COC(=O)[C@H]1CCCN1C(=O)C(Cc1cccc(Oc2ccccc2)c1)NC(=O)[C@H]1CC[C@H](CN)CC1` (stereo partly drawn) [Compound 20]: the IC50 at human plasmin [1] was more than 60 µM; on human plasma kallikrein, more than 1000 µM; at bovine thrombin (setting [3]), more than 1000 µM; against human plasmin [2] it was more than 100 µM; at bovine trypsin it was more than 150 µM; at human urokinase (setting [4]), more than 1000 µM.
`COCCCNC(=O)C(Cc1cccc(C(=O)c2ccccc2)c1)NC(=O)[C@H]1CC[C@H](CN)CC1` (stereo partly drawn) [Compound 23]: the IC50 at human plasmin [1] was 620 µM; at human plasma kallikrein it was 350 µM; at bovine thrombin (setting [3]), more than 1000 µM; at human plasmin [2] it was 750 µM; at bovine trypsin, 8.2 µM; on human urokinase (setting [4]), more than 500 µM.
Turning to `NC[C@H]1CC[C@H](C(=O)NC(Cc2cccc(C(=O)c3ccccc3)c2)C(=O)N2CCOCC2)CC1` (stereo partly drawn) [Compound 24], the IC50 on human plasmin [1] is 700 µM; at human plasma kallikrein, more than 1000 µM; on bovine thrombin (setting [3]) it was more than 1000 µM; on human plasmin [2] it was more than 1000 µM; on bovine trypsin, more than 150 µM; on human urokinase (setting [4]), more than 1000 µM.
In the case of `CCOC(=O)C1CCCCN1C(=O)C(Cc1cccc(Oc2ccc(Br)cn2)c1)NC(=O)[C@H]1CC[C@H](CN)CC1` (stereo partly drawn) [Compound 26], the IC50 on human plasmin [1] is 400 µM; on human plasma kallikrein, more than 1000 µM; at bovine thrombin (setting [3]), more than 1000 µM; at human plasmin [2], more than 1000 µM; on bovine trypsin, more than 150 µM; on human urokinase (setting [4]) it was more than 1000 µM.
In the case of `NC[C@H]1CC[C@H](C(=O)NC(Cc2cccc(Oc3ccc(Br)cn3)c2)C(=O)N2CCOCC2)CC1` (stereo partly drawn) [Compound 27], the IC50 on human plasmin [1] is 440 µM; on human plasma kallikrein, more than 1000 µM; at bovine thrombin (setting [3]), more than 1000 µM; against human plasmin [2], 280 µM; on bovine trypsin, more than 150 µM; on human urokinase (setting [4]) it was more than 1000 µM.
